Data reported in PubChem BioAssay AID248 (DTP/NCI, 2004).
Where “and” joins values, the source holds several entries; their conditions need not be identical. Equal values may be shown once. Inconclusive results and toxic doses are left out. Cut-off read from the data, not from the text of the source: active = T/C of 150% or more; inactive = T/C below 125%.

Test system: L1210 leukemia ip in BDF1 mice, survival T/C
Experiment: NCI In Vivo Anticancer Drug Screen. Data for tumor model L1210 Leukemia (intraperitoneal) in B6D2F1 (BDF1) mice
Conditions: endpoint: mean survival time, higher = longer survival
How it was run: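 Each compound was tested against a transplantable tumor grown in mice. The endpoint was survival, with treated animals benchmarked against vehicle controls as a simple ratio.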

[1] = dose: 100.0 mg/kg/injection, schedule: Q04DX002 (ip), vehicle: Klucel (hydroxypropylcellulose) (HPC)
[2] = dose: 200.0 mg/kg/injection, schedule: Q04DX002 (ip), vehicle: Klucel (hydroxypropylcellulose) (HPC)
[3] = dose: 400.0 mg/kg/injection, schedule: Q04DX002 (ip), vehicle: Klucel (hydroxypropylcellulose) (HPC)
[4] = dose: 400.0 mg/kg/injection, schedule: Q01DX001 (ip), vehicle: saline

Measured: T/C

CC1(C)CC(=O)C2=C(C1)Nc1ccc(Cl)cc1NC2c1cccc([N+](=O)[O-])c1 (configuration not stated)
inactive: [1] 98 % of control | [2] 105 % of control | [3] 102 % of control

O=C(c1ccccc1)C(SC(=S)OCc1ccccc1)c1ccccc1 (configuration not stated)
inactive: dose: 25.0 mg/kg/injection, schedule: Q01DX009 (ip), vehicle: saline with Tween-80 98 % of control | dose: 50.0 mg/kg/injection, schedule: Q01DX009 (ip), vehicle: saline with Tween-80 100 % of control | dose: 100.0 mg/kg/injection, schedule: Q01DX009 (ip), vehicle: saline with Tween-80 96 % of control

ClCc1nc2nc(Cl)c(Cl)nc2[nH]1
inactive: dose: 50.0 mg/kg/injection, schedule: Q01DX009 (ip), vehicle: saline 88 % of control | dose: 100.0 mg/kg/injection, schedule: Q01DX009 (ip), vehicle: saline 102 % of control | dose: 100.0 mg/kg/injection, schedule: Q04DX003 (ip), vehicle: saline 101 % of control | dose: 200.0 mg/kg/injection, schedule: Q01DX009 (ip), vehicle: saline 102 % of control | dose: 200.0 mg/kg/injection, schedule: Q04DX003 (ip), vehicle: saline 101 % of control | dose: 400.0 mg/kg/injection, schedule: Q04DX003 (ip), vehicle: saline 98 % of control

O=[N+]([O-])c1ccc(N/N=C2/CCSc3ccccc32)cc1
inactive: dose: 100.0 mg/kg/injection, schedule: Q04DX003 (ip), vehicle: acetone 100 % of control | dose: 200.0 mg/kg/injection, schedule: Q04DX003 (ip), vehicle: acetone 99 % of control | dose: 400.0 mg/kg/injection, schedule: Q04DX003 (ip), vehicle: acetone 88 % of control

CC(=O)Nc1ccc(Cc2ccc(NC(C)=O)cc2[N+](=O)[O-])c([N+](=O)[O-])c1
inactive: dose: 100.0 mg/kg/injection, schedule: Q01DX001 (ip), vehicle: carboxymethylcellulose (CMC) 105 % of control | dose: 200.0 mg/kg/injection, schedule: Q01DX001 (ip), vehicle: carboxymethylcellulose (CMC) 100 % of control | dose: 400.0 mg/kg/injection, schedule: Q01DX001 (ip), vehicle: carboxymethylcellulose (CMC) 93 % of control

CCOC(=O)CNc1cccc(C)c1C
inactive: [1] 100 % of control | [2] 102 % of control | [3] 100 % of control

CCCCN(CCCC)CC(O)c1cc(-c2ccc(Cl)c(Cl)c2)nc2c(Cl)cc(Cl)cc12 (configuration not stated)
inactive: dose: 100.0 mg/kg/injection, schedule: Q01DX001 (ip), vehicle: saline 103 % of control | dose: 200.0 mg/kg/injection, schedule: Q01DX001 (ip), vehicle: saline 94 % of control | [4] 94 % of control

CC1=N/C(=C/c2ccc([N+](=O)[O-])s2)C(=O)O1
inactive: dose: 50.0 mg/kg/injection, schedule: Q04DX002 (ip), vehicle: Klucel (hydroxypropylcellulose) (HPC) 112 % of control | [1] 97 % of control | [2] 95 % of control and 115 % of control | [3] 98 % of control

CC(=O)NC1=C(NC(C)C)C(=O)c2ccccc2C1=O
inactive: dose: 12.5 mg/kg/injection, schedule: Q04DX003 (ip), vehicle: saline with Tween-80 94 % of control

CN=C(N)NN
inactive: dose: 30.0 mg/kg/injection, schedule: Q01DX Z (ip), vehicle: methylcellulose (MC) 102 % of control | dose: 60.0 mg/kg/injection, schedule: Q01DX Z (ip), vehicle: methylcellulose (MC) 97 % of control | dose: 120.0 mg/kg/injection, schedule: Q01DX Z (ip), vehicle: methylcellulose (MC) 105 % of control | dose: 175.0 mg/kg/injection, schedule: Q01DX001 (ip), vehicle: saline 105 % of control | dose: 240.0 mg/kg/injection, schedule: Q01DX Z (ip), vehicle: methylcellulose (MC) 98 % of control | dose: 265.0 mg/kg/injection, schedule: Q01DX001 (ip), vehicle: saline 104 % of control | dose: 375.0 mg/kg/injection, schedule: Q01DX Z (ip), vehicle: methylcellulose (MC) 111 % of control | [4] 98 % of control | dose: 480.0 mg/kg/injection, schedule: Q01DX Z (ip), vehicle: methylcellulose (MC) 107 % of control | dose: 600.0 mg/kg/injection, schedule: Q01DX001 (ip), vehicle: saline 104 % of control

Nc1nc(N)c(CCCCc2ccc([N+](=O)[O-])cc2)c(N)n1
inactive: dose: 100.0 mg/kg/injection, schedule: Q01DX009 (ip), vehicle: Klucel (hydroxypropylcellulose) (HPC) 100 % of control | dose: 200.0 mg/kg/injection, schedule: Q01DX009 (ip), vehicle: Klucel (hydroxypropylcellulose) (HPC) 102 % of control | dose: 400.0 mg/kg/injection, schedule: Q01DX009 (ip), vehicle: Klucel (hydroxypropylcellulose) (HPC) 94 % of control
